According to the supplement of paper PMC10307832:

How the values were obtained:
Assay in all cases: relative viability (nuclei count vs DMSO), 5 days (fraction); higher = more cells survive
[1] = compound: C(C(=O)C(=O)O)Br [Bromopyruvate] + Nc1ncn([C@H]2C[C@H](O)[C@@H](CO)O2)c(=O)n1 [Decitabine] (partner 2 µM)
How it was run: (§1)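 A single step with final 0.05% Triton X-100, 1% formaldehyde and 1 ug/ml Hoechst fixed the cells and stained nuclei 5 days after treatment. Lung cancer cell lines in 1536-well plates had been treated by pin tool the day after seeding with one drug alone or a fixed anchor-drug dose plus five library-drug doses (not always all listed) in √10 steps, and nuclei were counted on 4× images. Relative viability is the ratio of nuclei in treated wells to nuclei in vehicle wells, taken as the median of duplicate plates.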

[2] = compound: C(C(=O)C(=O)O)Br [Bromopyruvate] + CC(=O)Nc1cccc(-n2c(=O)n(C3CC3)c(=O)c3c(Nc4ccc(I)cc4F)n(C)c(=O)c(C)c32)c1 [Trametinib] (partner 0.02 µM)
How it was run: as §1

[3] = compound: C(C(=O)C(=O)O)Br [Bromopyruvate] + N=C(N)NC(=N)NCCc1ccccc1 [Phenformin] (partner 250 µM)
How it was run: as §1

[4] = compound: CC(O)(CS(=O)(=O)c1ccc(F)cc1)C(=O)Nc1ccc(C#N)c(C(F)(F)F)c1 [Bicalutamide] + CC1(C)CCC(c2ccc(Cl)cc2)=C(CN2CCN(c3ccc(C(=O)NS(=O)(=O)c4ccc(N[C@H](CCN5CCOCC5)CSc5ccccc5)c(S(=O)(=O)C(F)(F)F)c4)cc3)CC2)C1 [Navitoclax] (partner 0.5 µM)
How it was run: as §1

Cell Line	relative viability ([1]; first compound 1 µM)	relative viability ([1]; first compound 3.162 µM)	relative viability ([1]; first compound 10 µM)	relative viability ([1]; first compound 31.62 µM)	relative viability ([1]; first compound 100 µM)	relative viability ([2]; first compound 1 µM)	relative viability ([2]; first compound 3.162 µM)	relative viability ([2]; first compound 10 µM)	relative viability ([2]; first compound 31.62 µM)	relative viability ([2]; first compound 100 µM)	relative viability ([3]; first compound 1 µM)	relative viability ([3]; first compound 3.162 µM)	relative viability ([3]; first compound 10 µM)	relative viability ([3]; first compound 31.62 µM)	relative viability ([3]; first compound 100 µM)	relative viability ([4]; first compound 0.08 µM)	relative viability ([4]; first compound 0.253 µM)	relative viability ([4]; first compound 0.8 µM)	relative viability ([4]; first compound 2.53 µM)
ChaGo-K-1	0.554	0.525	0.609	0.529	0.486	0.887	0.911	0.963	0.855	0.903	0.581	0.531	0.511	0.473	0.411	0.983	1.02	1.17	0.793
COR-L23	0.407	0.404	0.469	0.379	0.281	0.585	0.652	0.651	0.582	0.544	0.433	0.435	0.459	0.411	0.227	1.17	1.02	1.11	0.898
COR-L 105	0.59	0.674	0.75	0.706	0.525	0.432	0.449	0.417	0.422	0.329	0.488	0.438	0.484	0.405	0.391	0.694	0.696	0.726	0.703
LK-2	0.277	0.232	0.287	0.325	0.272	0.742	0.92	0.872	0.782	0.519	0.411	0.673	0.432	0.57	0.496	0.844	0.798	1.18	0.841
201T	0.882	0.835	0.849	0.85	0.928	0.709	0.719	0.709	0.725	0.755	0.504	0.489	0.481	0.453	0.455	1.18	1.24	1.18	1.22
HCC-44	0.987	0.926	0.895	0.943	0.908	1.08	1.02	1.04	1.11	1	0.346	0.191	0.185	0.184	0.16	0.921	0.949	0.924	0.982
NCI-H647	0.439	0.362	0.405	0.393	0.474	0.425	0.472	0.665	0.473	0.488	0.5	0.637	0.578	0.494	0.494	1.15	1.09	1.46	1.18
H3255	0.514	0.705	0.794	0.609	0.622	0.55	0.547	0.647	0.574	0.718	0.365	0.421	0.432	0.399	0.37	0.524	0.489	0.631	0.4
